Values quoted from earlier work as cited in patent publication US20250082604A1, “COMPOSITIONS CONTAINING A HIGH CONTENT OF PROANTHOCYANIDINS AND METHODS OF PREPARATION AND USE THEREOF” (priority 2022, published 2025).

System: human HepG2 cells
Details: literature data (dx.doi.org/10.3390/antiox9060471)

| Structure (SMILES) | AOP1 EC50, data from the literature |
| --- | --- |
| COc1ccc(O)c(C(C)(C)C)c1 [BHA] | 31.54 µg/mL |
| Cc1cc(C(C)(C)C)c(O)c(C(C)(C)C)c1 [BHT] | 34.25 µg/mL |
| Cc1c(C)c2c(c(C)c1O)CCC(C)(C(=O)O)O2 (stereo not shown) [Trolox] | 138.50 µg/mL |
| Oc1ccc(C=Cc2cc(O)cc(O)c2)cc1 [resveratrol] | 64.66 µg/mL |
